Laboratory results reported in BindingDB's records for doi:10.1021/jm00166a009 (Ohio State University, 1990).

Molecular target: Alpha-2 adrenergic receptor (Homo sapiens)
Test: Stimulatory activity against serotonin secretion (SEC).

SMILES | IC50 [µM]
Oc1cc(CC2=NCCN2)cc(F)c1O | 18.2
Oc1ccc(CC2=NCCN2)c(F)c1O | 15.5
Oc1ccc(C(O)c2ncc[nH]2)cc1O (stereo not drawn) | 437
